Source: patent US8207342B2, “Substituted 3-amino-2-mercaptoquinolines as KCNQ2/3 modulators” (Gruenenthal GmbH, priority 2009, dated 2012)

Columns and labels:
KCNQ2/3 channels = biological target: T1, KCNQ2/3 channels (Homo sapiens, UniProt O43525+O43526); assay: Fluorescence assay using a voltage sensitive dye (fluorimetry); format: cell-based; settings: CHO-K1 cells expressing KCNQ2/3 channels; for EC50: agonistic activity; for Emax: relative to retigabine = 100%, read-out: Fluorimetry % efficacy (retigabine = 100%)
T1 construct: expressed in transfected cells
Procedure: Fluorescence Assay using a Voltage Sensitive Dye
Human CHO—K1 cells expressing KCNQ2/3 channels are cultivated adherently at 37° C., 5% CO2 and 95% humidity in cell culture bottles (e.g. 80 cm^2 TC flasks, Nunc) with DMEM-high glucose (Sigma Aldrich, D7777) including 10% FCS (PAN Biotech, e.g. 3302-P270521) or alternatively MEM Alpha Medium (1×, liquid, Invitrogen, #22571), 10% fetal calf serum (FCS) (Invitrogen, #10270-106, heat-inactivated) and the necessary selection antibiotics.
Before being sown out for the measurements, the cells are washed with a 1×DPBS buffer without Ca^2+/Mg^2+ (e.g. Invitrogen, #14190-094) and detached from the bottom of the culture vessel by means of Accutase (PAA Laboratories, #L11-007) (incubation with Accutase for 15 min at 37° C.). The cell count then present is determined using a CASY™ cell counter (TCC model, Schärfe System) in order subsequently to apply, depending on the density optimization for the individual cell line, 20,000-30,000 cells/well/100 μl of the described nutrient medium to 96-well measuring plates of the Corning™ CellBIND™ type (Flat Clear Bottom Black Polystyrene Microplates, #3340). Incubation is then carried out for one hour at room temperature, without gassing or adjusting the humidity, followed by incubation for 24 hours at 37° C., 5% CO2 and 95% humidity.
The voltage-sensitive fluorescent dye from the Membrane Potential Assay Kit (Red™ Bulk format part R8123 for FLIPR, MDS Analytical Technologies™) is prepared by dissolving the contents of a vessel Membrane Potential Assay Kit Red Component A in 200 ml of extracellular buffer (ES buffer, 120 mM NaCl, 1 mM KCl, 10 mM HEPES, 2 mM CaCl2, 2 mM MgCl2, 10 mM glucose; pH 7.4). After removal of the nutrient medium, the cells are washed with 200 μl of ES buffer, then covered with a layer of 100 μl of the dye solution prepared above and incubated for 45 min at room temperature with the exclusion of light.
The fluorescence measurements are carried out with a BMG Labtech FLUOstar™, BMG Labtech NOVOstar™ or BMG Labtech POLARstar™ instrument (525 nm excitation, 560 nm emission, Bottom Read mode). After incubation of the dye, 50 μl of the test substances in the desired concentrations, or 50 μl of ES buffer for control purposes, are introduced into separate cavities of the measuring plate and incubated for 30 min at room temperature while being shielded from light. The fluorescence intensity of the dye is then measured for 5 min and the fluorescence value F1 of each well is thus determined at a given, constant time. 15 μl of a […] KCl solution ([…]) are then added to each well. The change in fluorescence is subsequently measured until all the relevant measured values have been obtained (mainly 5-30 min). At a given time after KCl application, a fluorescence value F2 is determined, in this case at the time of the fluorescence peak.
For calculation, the fluorescence intensity F2 is compared with the fluorescence intensity F1, and the agonistic activity of the target compound on the potassium channel is determined therefrom. F2 and F1 are calculated as follows: […]
In order to determine whether a substance has agonistic activity,
A substance has an agonistic activity on the potassium channel when
[formula] it is possible to conclude that a target compound has agonistic activity if an increase in
Calculations of EC50 values are carried out with the aid of ‘Prism v4.0’ software (GraphPad Software™).

[1] = test system: formalin-induced pain behaviour; assay: Formalin test, mouse (phase 2, chronic pain component); format: in vivo; settings: change in percent compared with vehicle control
Procedure: Formalin Test, Mouse The formalin test (Dubuisson, D. and Dennis, S. G., 1977, Pain, 4, 161-174) represents a model for both acute and chronic pain. By means of a single formalin injection into the dorsal side of a rear paw, a biphasic nociceptive reaction is induced in freely mobile test animals; the reaction is detected by observing three behaviour patterns which are clearly distinguishable from one another. The reaction is two-phase: phase 1=immediate reaction (duration up to 10 min; shaking of the paw, licking), phase 2=late reaction (after a rest phase; likewise shaking of the paw, licking; duration up to 60 min). The 1st phase reflects a direct stimulation of the peripheral nocisensors with high spinal nociceptive input (acute pain phase); the 2nd phase reflects a spinal and peripheral hypersensitization (chronic pain phase). In the studies described here, the chronic pain component (phase 2) has been evaluated. Formalin in a volume of 20 μl and a concentration of 1% is administered subcutaneously into the dorsal side of the right rear paw of each animal. The specific changes in behaviour, such as lifting, shaking or licking of the paw (score 3, Dubuisson & Dennis, 1977), are observed and recorded in the observation period of 21 to 24 minutes following the formalin injection. The behaviour of the animals after administration of the substance (n=10 per dose of substance) was compared with a control group which received vehicle (n=10). On the basis of the quantification of the pain behaviour, the action of the substance in the formalin test was determined as the change in percent compared with the control. The ED50 calculations (ED50=mean effective dose) were carried out by means of regression analysis according to the method of Litchfield and Wilcoxon (Litchfield, J. T., Wilcoxon, J. J., 1949, J. Pharmacol. Exp. Ther. 96, 99—113). The time of administration of the compound before the formalin injection was chosen as 5 min in the case of intravenous administration and 30 min in the case of oral administration.

Row | Structure (SMILES) | EC50 (KCNQ2/3 channels) [nM] | Emax (KCNQ2/3 channels) [%] | Formalin Test mouse IV effect @ dose [mg/kg] ([1]; 1 mg/kg) [% @ 1] | Formalin Test mouse IV effect @ dose [mg/kg] ([1]; 0.68 mg/kg) [% @ 0.68]
1 | CCSc1nc2ccccc2cc1NC(=O)CC(C)(C)C [Example 9, N-(2-(ethylthio)quinolin-3-yl)-3,3-dimethylbutanamide] | 414 | 142 |  | 
2 | CCSc1nc2cc(C(F)(F)F)ccc2cc1NC(=O)Cc1cccs1 [Example 10, N-[2-Ethylsulfanyl-7-(trifluoromethyl)quinolin-3-yl]-2-thiophen-2-yl-acetamide] | 1150 | 57 |  | 
3 | CCSc1nc2cc(C(F)(F)F)ccc2cc1NC(=O)CC1CC2CCC1C2 (stereo not shown) [Example 16, 2-(5-bicyclo[2.2.1]heptanyl)-N-[2-ethylsulfanyl-7-(trifluoromethyl)-quinolin-3-yl]-acetamide] | 647 | 66 |  | 
4 | CCSc1nc2cc(C(F)(F)F)ccc2cc1NC(=O)CC(C)(C)C [Example 11, N-[2-ethylsulfanyl-7-(trifluoromethyl)-quinolin-3-yl]-3,3-dimethyl-butyramide] |  | 35 |  | 
5 | CCSc1nc2cc(C(F)(F)F)ccc2cc1NC(=O)CCC1CCCC1 [Example 12, 3-cyclopentyl-N-[2-ethylsulfanyl-7-(trifluoromethyl)-quinolin-3-yl]propionamide] | 5020 | 62 |  | 
6 | O=C(Cc1cccs1)Nc1cc2ccccc2nc1SCCSc1ccccc1 [Example 6, N-(2-(2-(phenylthio)ethylthio)quinolin-3-yl)-2-(thiophen-2-yl)acetamide] |  | 25 |  | 
7 | O=C(CC1CCCCC1)Nc1cc2ccccc2nc1SCCS(=O)(=O)c1ccccc1 [Example 1, 2-cyclohexyl-N-(2-(2-(phenylsulfonyl)ethylthio)quinolin-3-yl)acetamide] | 253 | 80 |  | 

The remaining compounds from weak to strong by EC50 (KCNQ2/3 channels), led by results:

Row | EC50 (KCNQ2/3 channels) [nM] | Emax (KCNQ2/3 channels) [%] | Structure (SMILES) | Formalin Test mouse IV effect @ dose [mg/kg] ([1]; 1 mg/kg) [% @ 1] | Formalin Test mouse IV effect @ dose [mg/kg] ([1]; 0.68 mg/kg) [% @ 0.68]
8 | 204 | 179 | CCSc1nc2ccccc2cc1NC(=O)CC1CC2CCC1C2 (stereo not shown) [Example 14, 2-(5-bicyclo[2.2.1]heptanyl)-N-(2-ethylsulfanyl-quinolin-3-yl)-acetamide] |  | 
9 | 174 | 97 | O=C(CCC1CCCCC1)Nc1cc2ccccc2nc1SCCS(=O)(=O)c1ccccc1 [Example 3, 3-Cyclohexyl-N-(2-(2-(phenylsulfonyl)ethylthio)quinolin-3-yl)propanamide] |  | 
10 | 156 | 93 | CCSc1nc2ccccc2cc1NC(=O)Cc1cccs1 [Example 7, N-(2-(ethylthio)quinolin-3-yl)-2-(thiophen-2-yl)acetamide] | 24 | 
11 | 150 | 101 | CCSc1nc2ccccc2cc1NC(=O)CC1CCCCC1 [Example 13, 2-Cyclohexyl-N-(2-ethylsulfanyl-quinolin-3-yl)-acetamide] |  | 
12 | 107 | 60 | CCCCCSc1nc2ccccc2cc1NC(=O)Cc1cccs1 [Example 4, N-(2-(pentylthio)quinolin-3-yl)-2-(thiophen-2-yl)acetamide] |  | 
13 | 94 | 140 | CCSc1nc2cc(C(F)(F)F)ccc2c(C)c1NC(=O)Cc1cccs1 [Example 18, N-[2-ethylsulfanyl-4-methyl-7-(trifluoromethyl)-quinolin-3-yl]-2-thiophen-2-yl-acetamide] | 43 | 
14 | 82 | 143 | CCSc1nc2ccccc2cc1NC(=O)CCC1CCCC1 [Example 15, 3-cyclopentyl-N-(2-ethylsulfanyl-quinolin-3-yl)-propionamide] | 17 | 
15 | 67 | 80 | O=C(Cc1cccs1)Nc1cc2ccccc2nc1SCCS(=O)(=O)c1ccccc1 [Example 2, N-(2-(2-(phenylsulfonyl)ethylthio)quinolin-3-yl)-2-(thiophen-2-yl)acetamide] |  | 
16 | 66 | 107 | CCSc1nc2cc(C(F)(F)F)ccc2c(C)c1NC(=O)CCC1CCCC1 [Example 17, 3-cyclopentyl-N-[2-ethylsulfanyl-4-methyl-7-(trifluoromethyl)-quinolin-3-yl]-propionamide] |  | 90
